Measured values published in publication doi:10.1101/2025.04.25.650653, “Hierarchical small molecule inhibition of MYST acetyltransferases” (bioRxiv, 2025).
“And” between values parts separate entries of the source, which are not always exact repeats. Equal values may be shown once.

Tested on: histone modifications in MCF-7 cells
Assay: Histone modification analysis by bottom-up LC-MS/MS
Assay type: cell-based
Conditions: for Average ratio, H2A1_12_17 unmod (AKAKTR): peptide H2A1_12_17 unmod; for Average ratio, H2A1_12_17 unmod (AKAKTR) / Average ratio, H2A3_12_17 K15me1 (AKAKSR) / Ratio, H2A1_12_17 unmod / Ratio, H2A3_12_17 K15me1: MCF-7; for Average ratio, H2A1_12_17 unmod (AKAKTR) / Average ratio, H2A3_12_17 K15me1 (AKAKSR): average of 3 replicates; for Average ratio, H2A3_12_17 K15me1 (AKAKSR): peptide H2A3_12_17 K15me1; for Ratio, H3_3_8 K4me1 / Ratio, H3_3_8 unmod / Ratio, H3_54_63 unmod / Ratio, H3_41_49 unmod: Replicates 1-3
Text: In this approach. […] Histones are then extracted from cell pellets and chemically derivatized with propionic anhydride, digested with trypsin, subjected to a second round of propionylation, and analyzed by LC-MS/MS. Measuring the relative intensity of modified versus unmodified forms of individual histone peptides enables simultaneous monitoring of multiple potential biomarkers of MYST inhibition. To minimize false positives, we focused on abundant and reproducible modifications (average stoichiometry of greater than 1% across triplicate samples, standard deviation less than or equal to the average measurement). To account for potential histone modification crosstalk, changes in both acetylated and methylated peptides were evaluated. 38 modified peptides passed this reproducible detection threshold including several established KAT biomarkers[41] including H3K9Ac (KAT2A/B), H3K18Ac (KAT3A/B), H3K14Ac (KAT7), H3K23Ac (KAT6A/B), H4K16Ac (KAT8), and H2A.ZK4/K7Ac (KAT5; Fig. 4B).
Histone modification analysis
MCF-7 cells were cultured at 37 °C under 5% CO2 in EMEM (Quality Biological, 112-016-101) with 0.01 mg/mL human recombinant insulin (Sigma Aldrich, 91077C), 2 mM L-glutamine (Quality Biological, 118- […]
human recombinant insulin.
1119, WM-3835). Following 24 h inhibitor treatment, cells were washed with ice-cold 1× PBS and scraped in 150 µL of Nuclear Isolation Buffer (NIB) containing 0.1% NP-40 for histone extraction using a modified protocol from the Garcia laboratory. 9 Briefly, cell suspensions were incubated on ice for 5 minutes, and […]
nuclei were pelleted by centrifugation (600 rcf, 4°C, 5 min). Pelleted nuclei were washed twice with 150 μL of detergent-free NIB buffer, followed by centrifugation (600 rcf, 4°C, 5 min) to remove all detergent.
Nuclei were then resuspended in 400 μL of 0.4 N H₂SO₄ and rotated at 4°C overnight for acid extraction of histones. The following day, samples were centrifuged (11,000 rcf, 4°C, 10 min) and the histone-containing supernatant was transferred to a fresh tube. Trichloroacetic acid (100% TCA) was added to achieve a final concentration of 20% (v/v), tubes were inverted once to mix, and histone precipitation was performed on ice for at least 3 hours or overnight at 4°C. Precipitated histones were collected by centrifugation (11,000 rcf, 4°C, 10 min) and the supernatant carefully removed, leaving a visible film of histones on the tube wall or bottom. Histone pellets were subjected to sequential washes with 1 mL of ice-cold acidified acetone (0.1% 12 N HCl) followed by 1 mL of 100% ice-cold acetone, with centrifugation (11,000 rcf, 4°C, 5 min) after each wash. Samples were air-dried at room temperature, resuspended in 40 µL of ddH₂O, and protein […]
analysis, 1-2 µg of purified histones were loaded per lane and processed according to the general immunoblotting protocol described in General Materials and Methods.
Analysis of histone modifications by LC-MS/MS
Preparation of histone samples for LC-MS/MS was performed analogously to the procedure for immunoblotting above, with the following modifications. MCF7 cells (4.2 × 106) were seeded in 15 cm dishes and treated with PF-9363 or vehicle. Experiments were performed in triplicate. Following treatment and PBS washing, cells were scraped and collected in 15 mL falcon tubes, pelleted (500 rcf, 4°C, 5 min), resuspended in 1 mL cold PBS, transferred to microcentrifuge tubes, and pelleted again before flash-freezing in liquid nitrogen for storage at -80°C. For extraction, cell pellets (~100 μL) were resuspended in NIB buffer at a 1:10 ratio, and cells were lysed with NIB buffer containing 0.2% NP-40 for 8 minutes on ice. Nuclei were pelleted at 1,000 rcf for 8 minutes and washed three times with 500 μL detergent-free NIB buffer. Histones were extracted using 800 μL of 0.2 M H₂SO₄, and after centrifugation (3,400 rcf, 4°C, 10

[1] = TKQTAR(H3_3_8), PF-9363 0.1 v 30
[2] = TKQTAR(H3_3_8), PF-9363 (0.1 mM)
[3] = TKQTAR(H3_3_8), PF-9363 (30 mM)

## COc1cccc(OC)c1S(=O)(=O)Nc1noc2cc(Cn3cccn3)cc(OC)c12 [PF-9363]
PF-9363 (0.1 mM)
  Average ratio, H2A1_1_11 K5ac: 0.8521
  Average ratio, H2A1_4_11 K5ac: 0.0421
  Average ratio, H2A1_4_11 K9ac: 0.0404
  Average ratio, H2A1_4_11 unmod: 0.9065
  Average ratio, H2A1_36_42 unmod: 0.9991
  Average ratio, H2A3_36_42 unmod: 1.0000
  Average ratio, H2AJ_4_11 K5acK9ac: 0.8702
  Average ratio, H2AV_1_19 K4ac: 0.0404
  Average ratio, H2AV_1_19 unmod: 0.8917
  Average ratio, H2AX_36_42 unmod: 1.0000
  Average ratio, H2AZ_1_19 K11ac: 0.0091
  Average ratio, H2AZ_1_19 unmod: 0.8729
  Average ratio, H3_73_83 K79me1: 0.0887
  Average ratio, H3_73_83 K79me2: 0.0735
  Average ratio, H3_73_83 unmod: 0.8364
  Average ratio, H4_4_17 K12acK16ac: 0.0092
  Average ratio, H4_4_17 unmod: 0.6321
  Average ratio, H4_20_23 K20me1: 0.0308
  Average ratio, H4_20_23 unmod: 0.0293
  Average ratio, H2A1_12_17 unmod (AKAKTR): 0.4892
  Average ratio, H2A3_12_17 K15me1 (AKAKSR): 0.4715
PF-9363 (30 mM)
  Average ratio, H2A1_1_11 K5ac: 0.8566
  Average ratio, H2A1_4_11 K5ac: 0.0480
  Average ratio, H2A1_4_11 K9ac: 0.0347
  Average ratio, H2A1_4_11 unmod: 0.9114
  Average ratio, H2A1_36_42 unmod: 0.9988
  Average ratio, H2A3_36_42 unmod: 1.0000
  Average ratio, H2AJ_4_11 K5acK9ac: 0.8922
  Average ratio, H2AV_1_19 K4ac: 0.0413
  Average ratio, H2AV_1_19 unmod: 0.7807
  Average ratio, H2AX_4_11 unmod: 0.3301
  Average ratio, H2AX_36_42 unmod: 1.0000
  Average ratio, H2AZ_1_19 K11ac: 0.0141
  Average ratio, H2AZ_1_19 unmod: 0.9481
  Average ratio, H3_73_83 K79me1: 0.0821
  Average ratio, H3_73_83 K79me2: 0.0558
  Average ratio, H3_73_83 unmod: 0.8605
  Average ratio, H4_4_17 K12acK16ac: 0.1819
  Average ratio, H4_4_17 unmod: 0.4341
  Average ratio, H4_20_23 K20me1: 0.0237
  Average ratio, H4_20_23 unmod: 0.0213
  Average ratio, H2A1_12_17 unmod (AKAKTR): 0.5017
  Average ratio, H2A3_12_17 K15me1 (AKAKSR): 0.4920
Replicate 1, PF-9363 0.1
  Ratio, H2A1_12_17 unmod: 0.4969
  Ratio, H2A3_12_17 K15me1: 0.4799
Replicate 1, PF-9363 1
  Ratio, H2A1_12_17 unmod: 0.5198
  Ratio, H2A3_12_17 K15me1: 0.5023
Replicate 1, PF-9363 10
  Ratio, H2A1_12_17 unmod: 0.4982
  Ratio, H2A3_12_17 K15me1: 0.4848
Replicate 1, PF-9363 30
  Ratio, H2A1_12_17 unmod: 0.5053
  Ratio, H2A3_12_17 K15me1: 0.497
Replicate 2, PF-9363 0.1
  Ratio, H2A1_12_17 unmod: 0.484
  Ratio, H2A3_12_17 K15me1: 0.4685
Replicate 2, PF-9363 1
  Ratio, H2A1_12_17 unmod: 0.4972
  Ratio, H2A3_12_17 K15me1: 0.4788
Replicate 2, PF-9363 10
  Ratio, H2A1_12_17 unmod: 0.498
  Ratio, H2A3_12_17 K15me1: 0.4832
Replicate 2, PF-9363 30
  Ratio, H2A1_12_17 unmod: 0.4993
  Ratio, H2A3_12_17 K15me1: 0.4897
Replicate 3, PF-9363 0.1
  Ratio, H2A1_12_17 unmod: 0.4868
  Ratio, H2A3_12_17 K15me1: 0.466
Replicate 3, PF-9363 1
  Ratio, H2A1_12_17 unmod: 0.5044
  Ratio, H2A3_12_17 K15me1: 0.4869
Replicate 3, PF-9363 10
  Ratio, H2A1_12_17 unmod: 0.4939
  Ratio, H2A3_12_17 K15me1: 0.4755
Replicate 3, PF-9363 30
  Ratio, H2A1_12_17 unmod: 0.5006
  Ratio, H2A3_12_17 K15me1: 0.4892
[1]
  Fold-change 0.1 v 30, H3_3_8 K4me1: 1.02
  Fold-change 0.1 v 30, H3_3_8 unmod: 1.00
[2]
  Average ratio, H3_3_8 K4me1: 0.0973
  Average ratio, H3_3_8 unmod: 0.8963
[3]
  Average ratio, H3_3_8 K4me1: 0.0953
  Average ratio, H3_3_8 unmod: 0.8973
TKQTAR(H3_3_8), dose 0.1
  Ratio, H3_3_8 K4me1: 0.09461 and 0.103 and 0.09428
  Ratio, H3_3_8 unmod: 0.9002 and 0.8874 and 0.9011
TKQTAR(H3_3_8), dose 1
  Ratio, H3_3_8 K4me1: 0.09313 and 0.09156 and 0.09495
  Ratio, H3_3_8 unmod: 0.903 and 0.9014 and 0.9006
TKQTAR(H3_3_8), dose 10
  Ratio, H3_3_8 K4me1: 0.1087 and 0.09351 and 0.1018
  Ratio, H3_3_8 unmod: 0.8856 and 0.9033 and 0.8936
TKQTAR(H3_3_8), dose 30
  Ratio, H3_3_8 K4me1: 0.09818 and 0.09712 and 0.09049
  Ratio, H3_3_8 unmod: 0.8954 and 0.8931 and 0.9034
YQKSTELLIR(H3_54_63), PF-9363 0.1 v 30
  Fold-change 0.1 v 30, H3_54_63 unmod: 0.99
YQKSTELLIR(H3_54_63), PF-9363 (0.1 mM)
  Average ratio, H3_54_63 unmod: 0.9888
YQKSTELLIR(H3_54_63), PF-9363 (30 mM)
  Average ratio, H3_54_63 unmod: 0.9942
YQKSTELLIR(H3_54_63), dose 0.1
  Ratio, H3_54_63 unmod: 0.9974 and 0.9808 and 0.9881
YQKSTELLIR(H3_54_63), dose 1
  Ratio, H3_54_63 unmod: 0.9878 and 0.9887 and 0.9945
YQKSTELLIR(H3_54_63), dose 10
  Ratio, H3_54_63 unmod: 0.9895 and 0 and 0.9781
YQKSTELLIR(H3_54_63), dose 30
  Ratio, H3_54_63 unmod: 0.9962 and 0.9919 and 0.9944
YRPGTVALR(H3_41_49), PF-9363 0.1 v 30
  Fold-change 0.1 v 30, H3_41_49 unmod: 1.00
YRPGTVALR(H3_41_49), PF-9363 (0.1 mM)
  Average ratio, H3_41_49 unmod: 0.9999
YRPGTVALR(H3_41_49), PF-9363 (30 mM)
  Average ratio, H3_41_49 unmod: 0.9999
YRPGTVALR(H3_41_49), dose 0.1
  Ratio, H3_41_49 unmod: 0.9999 and 1 and 0.9998
YRPGTVALR(H3_41_49), dose 1
  Ratio, H3_41_49 unmod: 0.9993 and 1 and 0.9999
YRPGTVALR(H3_41_49), dose 10
  Ratio, H3_41_49 unmod: 0.9997 and 1 and 0.9999
YRPGTVALR(H3_41_49), dose 30
  Ratio, H3_41_49 unmod: 1 (2×) and 0.9996
Average ratio 0.1 v 30
  Fold-change 0.1 v 30, H2A1_1_11 K5ac: 0.99
  Fold-change 0.1 v 30, H2A1_4_11 K5ac: 0.88
  Fold-change 0.1 v 30, H2A1_4_11 K9ac: 1.17
  Fold-change 0.1 v 30, H2A1_4_11 unmod: 0.99
  Fold-change 0.1 v 30, H2A1_36_42 unmod: 1.00
  Fold-change 0.1 v 30, H2A3_36_42 unmod: 1.00
  Fold-change 0.1 v 30, H2AJ_4_11 K5acK9ac: 0.98
  Fold-change 0.1 v 30, H2AV_1_19 K4ac: 0.98
  Fold-change 0.1 v 30, H2AV_1_19 unmod: 1.14
  Fold-change 0.1 v 30, H2AX_36_42 unmod: 1.00
  Fold-change 0.1 v 30, H2AZ_1_19 K11ac: 0.64
  Fold-change 0.1 v 30, H2AZ_1_19 unmod: 0.92
  Fold-change 0.1 v 30, H3_73_83 K79me1: 1.08
  Fold-change 0.1 v 30, H3_73_83 K79me2: 1.32
  Fold-change 0.1 v 30, H3_73_83 unmod: 0.97
  Fold-change 0.1 v 30, H4_4_17 K12acK16ac: 0.05
  Fold-change 0.1 v 30, H4_4_17 unmod: 1.46
  Fold-change 0.1 v 30, H4_20_23 K20me1: 1.30
  Fold-change 0.1 v 30, H4_20_23 unmod: 1.38
